Assay results reported in PubChem BioAssay (NCI).
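At the GI50, growth is halved. TGI: concentration producing complete growth inhibition.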

Columns and labels:
Assay in all cases: inhibition of tumour cell growth, NCI panel, 384-well format
786-0 renal = test system: 786-0 renal
A498 renal = test system: A498 renal
A549 NSCLC = test system: A549 NSCLC
ACHN renal = test system: ACHN renal
BT-549 breast = test system: BT-549 breast
CAKI-1 renal = test system: CAKI-1 renal
CCRF-CEM leukemia = test system: CCRF-CEM leukemia
COLO 205 colon = test system: COLO 205 colon
DU-145 prostate = test system: DU-145 prostate
EKVX NSCLC = test system: EKVX NSCLC
HCC-2998 colon = test system: HCC-2998 colon
HCT-116 colon = test system: HCT-116 colon
HCT-15 colon = test system: HCT-15 colon
HL-60(TB) leukemia = test system: HL-60(TB) leukemia
HOP-62 NSCLC = test system: HOP-62 NSCLC
HOP-92 NSCLC = test system: HOP-92 NSCLC
HS 578T breast = test system: HS 578T breast
HT29 colon = test system: HT29 colon
IGROV1 ovarian = test system: IGROV1 ovarian
KM12 colon = test system: KM12 colon
LOX IMVI melanoma = test system: LOX IMVI melanoma
M14 melanoma = test system: M14 melanoma
MALME-3M melanoma = test system: MALME-3M melanoma
MCF7 breast = test system: MCF7 breast
MDA-MB-231 breast = test system: MDA-MB-231 breast
MDA-MB-435 melanoma = test system: MDA-MB-435 melanoma
MDA-MB-468 breast = test system: MDA-MB-468 breast
MOLT-4 leukemia = test system: MOLT-4 leukemia
NCI-H226 lung = test system: NCI-H226 lung
NCI-H23 lung = test system: NCI-H23 lung
NCI-H322M lung = test system: NCI-H322M lung
NCI-H460 NSCLC = test system: NCI-H460 NSCLC
NCI-H522 lung = test system: NCI-H522 lung
NCI/ADR-RES ovarian = test system: NCI/ADR-RES ovarian
OVCAR-3 ovarian = test system: OVCAR-3 ovarian
OVCAR-4 ovarian = test system: OVCAR-4 ovarian
OVCAR-5 ovarian = test system: OVCAR-5 ovarian
OVCAR-8 ovarian = test system: OVCAR-8 ovarian
PC-3 prostate = test system: PC-3 prostate
RPMI-8226 leukemia = test system: RPMI-8226 leukemia
RXF 393 renal = test system: RXF 393 renal
SF-268 CNS = test system: SF-268 CNS
SF-295 CNS = test system: SF-295 CNS
SF-539 CNS = test system: SF-539 CNS
SK-MEL-28 melanoma = test system: SK-MEL-28 melanoma
SK-MEL-5 melanoma = test system: SK-MEL-5 melanoma
SK-OV-3 ovarian = test system: SK-OV-3 ovarian
SN12C renal = test system: SN12C renal
SNB-19 CNS = test system: SNB-19 CNS
SNB-75 CNS = test system: SNB-75 CNS
SR leukemia = test system: SR leukemia
SW-620 colon = test system: SW-620 colon
T-47D breast = test system: T-47D breast
TK-10 renal = test system: TK-10 renal
U251 glioblastoma = test system: U251 glioblastoma
UACC-257 melanoma = test system: UACC-257 melanoma
UACC-62 melanoma = test system: UACC-62 melanoma
UO-31 renal = test system: UO-31 renal

Q: COc1cc(Nc2c(C#N)cnc3cc(OCCCN4CCN(C)CC4)c(OC)cc23)c(Cl)cc1Cl was tested. Which GI50 (786-0 renal) did it give?
A: 0.764 µM

Q: What about the TGI (786-0 renal) of the same compound?
A: 2.58 µM

Q: What about the GI50 (A498 renal) of the same compound?
A: 0.806 µM

Q: And the TGI (A498 renal)?
A: 3.61 µM

Q: And the GI50 (A549 NSCLC)?
A: 1.6 µM

Q: And the TGI (A549 NSCLC)?
A: 4.64 µM

Q: And the GI50 (ACHN renal)?
A: 0.443 µM

Q: What about the TGI (ACHN renal) of the same compound?
A: 4.05 µM

Q: What about the GI50 (BT-549 breast) of the same compound?
A: 1.21 µM

Q: What about the TGI (BT-549 breast) of the same compound?
A: 3.31 µM

Q: And the GI50 (CAKI-1 renal)?
A: 0.431 µM

Q: And the TGI (CAKI-1 renal)?
A: 2.09 µM

Q: And the GI50 (CCRF-CEM leukemia)?
A: 2.04 µM

Q: And the TGI (CCRF-CEM leukemia)?
A: 3.64 µM

Q: And the GI50 (COLO 205 colon)?
A: 2.01 µM

Q: And the TGI (COLO 205 colon)?
A: 5.45 µM

Q: And the GI50 (DU-145 prostate)?
A: 0.645 µM

Q: What about the TGI (DU-145 prostate) of the same compound?
A: 2.85 µM

Q: What about the GI50 (EKVX NSCLC) of the same compound?
A: 1.57 µM

Q: What about the TGI (EKVX NSCLC) of the same compound?
A: 5.85 µM

Q: And the GI50 (HCC-2998 colon)?
A: 2.2 µM

Q: And the TGI (HCC-2998 colon)?
A: 4.35 µM

Q: And the GI50 (HCT-116 colon)?
A: 1.15 µM

Q: What about the TGI (HCT-116 colon) of the same compound?
A: 2.57 µM

Q: What about the GI50 (HCT-15 colon) of the same compound?
A: 1.14 µM

Q: What about the TGI (HCT-15 colon) of the same compound?
A: 3.74 µM

Q: And the GI50 (HL-60(TB) leukemia)?
A: 1.39 µM

Q: What about the TGI (HL-60(TB) leukemia) of the same compound?
A: 2.72 µM

Q: What about the GI50 (HOP-62 NSCLC) of the same compound?
A: 1.69 µM

Q: And the TGI (HOP-62 NSCLC)?
A: 5.02 µM

Q: And the GI50 (HOP-92 NSCLC)?
A: 1.1 µM

Q: What about the TGI (HOP-92 NSCLC) of the same compound?
A: 2.79 µM

Q: What about the GI50 (HS 578T breast) of the same compound?
A: 1.29 µM

Q: What about the TGI (HS 578T breast) of the same compound?
A: 4.24 µM

Q: What about the GI50 (HT29 colon) of the same compound?
A: 1.43 µM

Q: What about the TGI (HT29 colon) of the same compound?
A: 3.59 µM

Q: And the GI50 (IGROV1 ovarian)?
A: 0.146 µM

Q: And the TGI (IGROV1 ovarian)?
A: 0.899 µM

Q: What about the GI50 (KM12 colon) of the same compound?
A: 0.448 µM

Q: What about the TGI (KM12 colon) of the same compound?
A: 4.03 µM

Q: What about the GI50 (LOX IMVI melanoma) of the same compound?
A: 0.637 µM

Q: And the TGI (LOX IMVI melanoma)?
A: 2.13 µM

Q: And the GI50 (M14 melanoma)?
A: 1.16 µM

Q: And the TGI (M14 melanoma)?
A: 2.49 µM

Q: And the GI50 (MALME-3M melanoma)?
A: 1.04 µM

Q: And the TGI (MALME-3M melanoma)?
A: 2.47 µM

Q: What about the GI50 (MCF7 breast) of the same compound?
A: 2.4 µM

Q: And the TGI (MCF7 breast)?
A: 5.38 µM

Q: What about the GI50 (MDA-MB-231 breast) of the same compound?
A: 1.41 µM

Q: What about the TGI (MDA-MB-231 breast) of the same compound?
A: 2.76 µM

Q: And the GI50 (MDA-MB-435 melanoma)?
A: 2.12 µM

Q: And the TGI (MDA-MB-435 melanoma)?
A: 5.43 µM

Q: And the GI50 (MDA-MB-468 breast)?
A: 0.998 µM

Q: And the TGI (MDA-MB-468 breast)?
A: 2.66 µM

Q: What about the GI50 (MOLT-4 leukemia) of the same compound?
A: 0.612 µM

Q: What about the TGI (MOLT-4 leukemia) of the same compound?
A: 2 µM

Q: And the GI50 (NCI-H226 lung)?
A: 2.77 µM

Q: What about the TGI (NCI-H226 lung) of the same compound?
A: 6.25 µM

Q: What about the GI50 (NCI-H23 lung) of the same compound?
A: 1.69 µM

Q: What about the TGI (NCI-H23 lung) of the same compound?
A: 4.26 µM

Q: What about the GI50 (NCI-H322M lung) of the same compound?
A: 0.423 µM

Q: And the TGI (NCI-H322M lung)?
A: 2.36 µM

Q: And the GI50 (NCI-H460 NSCLC)?
A: 1.62 µM

Q: And the TGI (NCI-H460 NSCLC)?
A: 5.14 µM

Q: What about the GI50 (NCI-H522 lung) of the same compound?
A: 0.133 µM

Q: And the TGI (NCI-H522 lung)?
A: 2.78 µM

Q: What about the GI50 (NCI/ADR-RES ovarian) of the same compound?
A: 2.14 µM

Q: What about the TGI (NCI/ADR-RES ovarian) of the same compound?
A: 4.66 µM

Q: And the GI50 (OVCAR-3 ovarian)?
A: 1.49 µM

Q: What about the TGI (OVCAR-3 ovarian) of the same compound?
A: 5.02 µM

Q: And the GI50 (OVCAR-4 ovarian)?
A: 1.85 µM

Q: What about the TGI (OVCAR-4 ovarian) of the same compound?
A: 4.18 µM

Q: What about the GI50 (OVCAR-5 ovarian) of the same compound?
A: 1.84 µM

Q: What about the TGI (OVCAR-5 ovarian) of the same compound?
A: 6.66 µM

Q: And the GI50 (OVCAR-8 ovarian)?
A: 1.94 µM

Q: And the TGI (OVCAR-8 ovarian)?
A: 5.02 µM

Q: What about the GI50 (PC-3 prostate) of the same compound?
A: 2.58 µM

Q: And the TGI (PC-3 prostate)?
A: 7.12 µM

Q: And the GI50 (RPMI-8226 leukemia)?
A: 0.898 µM

Q: What about the TGI (RPMI-8226 leukemia) of the same compound?
A: 2.35 µM

Q: And the GI50 (RXF 393 renal)?
A: 0.368 µM

Q: What about the TGI (RXF 393 renal) of the same compound?
A: 1.46 µM

Q: And the GI50 (SF-268 CNS)?
A: 1.85 µM

Q: And the TGI (SF-268 CNS)?
A: 5.52 µM

Q: What about the GI50 (SF-295 CNS) of the same compound?
A: 2.68 µM

Q: And the TGI (SF-295 CNS)?
A: 5.77 µM

Q: What about the GI50 (SF-539 CNS) of the same compound?
A: 1.55 µM

Q: And the TGI (SF-539 CNS)?
A: 2.99 µM

Q: What about the GI50 (SK-MEL-28 melanoma) of the same compound?
A: 1.56 µM

Q: What about the TGI (SK-MEL-28 melanoma) of the same compound?
A: 2.98 µM

Q: And the GI50 (SK-MEL-5 melanoma)?
A: 1.24 µM

Q: What about the TGI (SK-MEL-5 melanoma) of the same compound?
A: 2.54 µM

Q: And the GI50 (SK-OV-3 ovarian)?
A: 0.416 µM

Q: What about the TGI (SK-OV-3 ovarian) of the same compound?
A: 4.21 µM

Q: What about the GI50 (SN12C renal) of the same compound?
A: 0.301 µM

Q: And the TGI (SN12C renal)?
A: 4.14 µM

Q: And the GI50 (SNB-19 CNS)?
A: 3.51 µM

Q: And the TGI (SNB-19 CNS)?
A: 9.26 µM

Q: And the GI50 (SNB-75 CNS)?
A: 0.951 µM

Q: And the TGI (SNB-75 CNS)?
A: 3.32 µM

Q: And the GI50 (SR leukemia)?
A: 1.37 µM

Q: And the TGI (SR leukemia)?
A: 2.68 µM

Q: And the GI50 (SW-620 colon)?
A: 2.62 µM

Q: What about the TGI (SW-620 colon) of the same compound?
A: 5.86 µM

Q: And the GI50 (T-47D breast)?
A: 1.34 µM

Q: And the TGI (T-47D breast)?
A: 5.41 µM

Q: What about the GI50 (TK-10 renal) of the same compound?
A: 0.584 µM

Q: And the TGI (TK-10 renal)?
A: 3.52 µM

Q: What about the GI50 (U251 glioblastoma) of the same compound?
A: 2.1 µM

Q: What about the TGI (U251 glioblastoma) of the same compound?
A: 4.7 µM

Q: What about the GI50 (UACC-257 melanoma) of the same compound?
A: 1.61 µM

Q: And the TGI (UACC-257 melanoma)?
A: 2.98 µM

Q: What about the GI50 (UACC-62 melanoma) of the same compound?
A: 1.44 µM

Q: What about the TGI (UACC-62 melanoma) of the same compound?
A: 2.88 µM

Q: What about the GI50 (UO-31 renal) of the same compound?
A: 0.476 µM

Q: And the TGI (UO-31 renal)?
A: 2.56 µM
